{"source": "patent US8956648B2", "about": "“Calciumphosphate-based nanoparticles as carrier-systems for photodynamic therapy” (Biolitec PharmaMarketing Ltd, priority 2008, dated 2015)", "test_system": "human colon adenocarcinoma cell line HT29", "experiment": "Photodynamic cell test on HT29 tumor cell line (XTT viability after laser irradiation)", "assay_type": "cell-based", "details": "HT29 cells, 24 h incubation, 652 nm diode laser 50 J cm^−2, XTT assay", "method": "The photosensitizing activity was determined in the human colon adenocarcinoma cell line HT29. The HT29 cell lines were grown in DMEM (cc-pro GmbH) supplemented with 10% heat-inactivated fetal calf serum (FCS, cc-pro GmbH), 1% penicillin (10000 IU) and streptomycin (10,000 μg ml^−1, cc-pro GmbH). Cells were kept as a monolayer culture in a humidified incubator (5% CO2 in air at 37° C.).\nA stock solution of the nanoparticle formulation was kept in the dark at 4° C. Further dilution was performed in RPMI 1640 medium without phenol red supplemented with 10% FCS to reach a final photosensitizer concentration of 2 or 10 μM, respectively.\n2-10^4 cells ml^−1 were seeded in micro plates ([…]). Cells were incubated with fresh medium (RPMI without phenol red) containing 10% FCS with 2 or 10 μM of the photosensitizer for 24 h before light exposure. Before photosensitization, cells were washed, incubated with RPMI without phenol red and 10% FCS, then irradiated at room temperature with a 652 nm diode laser (Ceralas PDT 652, biolitec AG) at a fixed fluence rate of 100 mW cm^−2 (50 J cm^−2). […]\nThe cell viability was assessed by the XTT assay. […]\nThe absorbance of the samples was measured with a spectrophotometer (Tecan Infinite 200, Tecan Group Ltd.) at a wavelength of 490 nm. In order to measure reference absorbance (to measure non-specific readings) a wavelength of 630-690 nm was used. […]", "data": [{"smiles": "O=P(O)(O)Oc1ccc(-c2c3nc(c(-c4ccc(OP(=O)(O)O)cc4)c4ccc([nH]4)c(-c4ccc(OP(=O)(O)O)cc4)c4nc(c(-c5ccc(OP(=O)(O)O)cc5)c5ccc2[nH]5)C=C4)C=C3)cc1", "note": "[pTPPP, 5,10,15,20-tetrakis(4-phosphonooxyphenyl)porphine]", "values": [{"measurement": "photodynamic activity", "value": "no photodynamic activity"}]}]}
